The structures appear in SMILES notation. Where a name gives a salt, the structure may show the parent alone. A value given as a limit tells only on which side of the number the result lay.

The source of these data is patent US10442803B2, “Tricyclic heterocycles as bet protein inhibitors” (Incyte Corporation, priority 2013, dated 2019).

The assay relates to KMS.12.BM cells. The assay can be described thus: KMS.12.BM cell viability assay. The format is cell-based. The note with it: 72 h; KMS.12.BM human myeloma cells, 3 days, Cell Titer-GLO ATP quantitation; read-out: KMS cellular IC50. Summed up:
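IC50 derived from luminescent ATP quantitation (Cell Titer-GLO) of viable cells after 3-day compound treatment. KMS.12.BM human myeloma line seeded at 5000 cells/well in RPMI with 10% FBS.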
As to `CC(=O)N1CCC(Nc2cc3c(cc(C)n3Cc3ccccc3)n3c(C)nnc23)CC1` [Example 216, N-(1-Acetylpiperidin-4-yl)-6-benzyl-1,7-dimethyl-6H-pyrrolo[2,3-e][1,2,4]triazolo[4,3-a]pyridin-4-amine], the IC50 (in general, the midpoint of a concentration-inhibition curve) was in the range of 1000 to 10000 nM.

With `Cc1cc2c(cc(N[C@H]3CC[C@H](N)CC3)c3nnc(C)n32)n1Cc1ccccc1` [Example 217, trans-N-(6-Benzyl-1,7-dimethyl-6H-pyrrolo[2,3-e][1,2,4]triazolo[4,3-a]pyridin-4-yl)cyclohexane-1,4-diamine], the 50% inhibitory concentration (IC50) was at most 1000 nM.

For `Cc1cc2c(cc(N[C@H]3CC[C@@H](N)CC3)c3nnc(C)n32)n1Cc1ccccc1` [Example 218, cis-N-(6-Benzyl-1,7-dimethyl-6H-pyrrolo[2,3-e][1,2,4]triazolo[4,3-a]pyridin-4-yl)cyclohexane-1,4-diamine], the IC50 lay within 1000 to 10000 nM.

Take `CN[C@H]1CC[C@H](Nc2cc3c(cc(C)n3Cc3ccccc3)n3c(C)nnc23)CC1` [Example 219, trans-N-(6-Benzyl-1,7-dimethyl-6H-pyrrolo[2,3-e][1,2,4]triazolo[4,3-a]pyridin-4-yl)-N′-methylcyclohexane-1,4-diamine]: the IC50 was at most 1000 nM.

With `Cc1cc2c(cc(N[C@H]3CC[C@H](N(C)C)CC3)c3nnc(C)n32)n1Cc1ccccc1` [Example 220, trans-N′-(6-Benzyl-1,7-dimethyl-6H-pyrrolo[2,3-e][1,2,4]triazolo[4,3-a]pyridin-4-yl)-N,N-dimethylcyclohexane-1,4-diamine], the half-inhibitory concentration (IC50) lay within 1000 to 10000 nM.

With `CN[C@H]1CC[C@@H](Nc2cc3c(cc(C)n3Cc3ccccc3)n3c(C)nnc23)CC1` [Example 221, cis-N-(6-Benzyl-1,7-dimethyl-6H-pyrrolo[2,3-e][1,2,4]triazolo[4,3-a]pyridin-4-yl)-N′-methylcyclohexane-1,4-diamine], the IC50 was in the range of 1000 to 10000 nM.

With `Cc1cc2c(cc(N[C@H]3CC[C@@H](N(C)C)CC3)c3nnc(C)n32)n1Cc1ccccc1` [Example 222, cis-N′-(6-Benzyl-1,7-dimethyl-6H-pyrrolo[2,3-e][1,2,4]triazolo[4,3-a]pyridin-4-yl)-N,N-dimethylcyclohexane-1,4-diamine], the IC50 lay within 1000 to 10000 nM.

With `Cc1nnc2ccc3c(cc(C#N)n3Cc3ccccc3)n12` [Example 227, 6-Benzyl-1-methyl-6H-pyrrolo[2,3-e][1,2,4]triazolo[4,3-a]pyridine-7-carbonitrile trifluoroacetate salt], the IC50 is at most 1000 nM.

Take `Cc1cc2c(cc(NCC3CC3)c3nnc(C)n32)n1Cc1ccccc1` [Example 228, 6-Benzyl-N-(cyclopropylmethyl)-1,7-dimethyl-6H-pyrrolo[2,3-e][1,2,4]triazolo[4,3-a]pyridin-4-amine]: the IC50 was in the range of 1000 to 10000 nM.

Regarding `CNC(=O)Nc1cc2c(cc(C)n2Cc2ccccc2)n2c(C)nnc12` [Example 229, 1-(6-Benzyl-1,7-dimethyl-6H-pyrrolo[2,3-e][1,2,4]triazolo[4,3-a]pyridin-4-yl)-3-methylurea], the half-maximal inhibitory concentration (IC50) is at most 1000 nM.

Turning to `Cc1cc2c(cc(NC(N)=O)c3nnc(C)n32)n1Cc1cccc(C(F)(F)F)c1` [Example 230, 1-(1,7-Dimethyl-6-(3-(trifluoromethyl)benzyl)-6H-pyrrolo[2,3-e][1,2,4]triazolo[4,3-a]pyridin-4-yl)urea], the IC50 is at most 1000 nM.

`Cc1cc2c(cc(NC(N)=O)c3nnc(C)n32)n1Cc1cccc(Cl)c1` [Example 231, 1-(6-(3-Chlorobenzyl)-1,7-dimethyl-6H-pyrrolo[2,3-e][1,2,4]triazolo[4,3-a]pyridin-4-yl)urea]: the concentration for half-maximal inhibition (IC50) was at most 1000 nM.

Regarding `Cc1cc2c(cc(NC(N)=O)c3nnc(C)n32)n1Cc1cc(F)cc(F)c1` [Example 233, 1-(6-(3,5-Difluorobenzyl)-1,7-dimethyl-6H-pyrrolo[2,3-e][1,2,4]triazolo[4,3-a]pyridin-4-yl)urea], the IC50 is at most 1000 nM.

As for `Cc1cc2c(cc(NC(N)=O)c3nnc(C)n32)n1Cc1ccc(F)c(F)c1` [Example 234, 1-(6-(3,4-Difluorobenzyl)-1,7-dimethyl-6H-pyrrolo[2,3-e][1,2,4]triazolo[4,3-a]pyridin-4-yl)urea], the half-inhibitory concentration (IC50) was at most 1000 nM.

`Cc1cc2c(cc(NC(N)=O)c3nnc(C)n32)n1Cc1cccc(F)c1` [Example 235, 1-(6-(3-Fluorobenzyl)-1,7-dimethyl-6H-pyrrolo[2,3-e][1,2,4]triazolo[4,3-a]pyridin-4-yl)urea]: the IC50 was at most 1000 nM.

With `Cc1cc2c(cc(NC(N)=O)c3nnc(C)n32)n1Cc1ccc(F)cc1F` [Example 236, 1-(6-(2,4-Difluorobenzyl)-1,7-dimethyl-6H-pyrrolo[2,3-e][1,2,4]triazolo[4,3-a]pyridin-4-yl)urea], the 50% inhibitory concentration (IC50) is at most 1000 nM.

For `Cc1cc2c(cc(NC(N)=O)c3nnc(C)n32)n1Cc1cccc(F)c1F` [Example 237, 1-(6-(2,3-Difluorobenzyl)-1,7-dimethyl-6H-pyrrolo[2,3-e][1,2,4]triazolo[4,3-a]pyridin-4-yl)urea], the IC50 is at most 1000 nM.

Take `Cc1cc2c(cc(NC(N)=O)c3nnc(C)n32)n1Cc1ccccc1F` [Example 238, 1-(6-(2-Fluorobenzyl)-1,7-dimethyl-6H-pyrrolo[2,3-e][1,2,4]triazolo[4,3-a]pyridin-4-yl)urea]: the IC50 lay in the range of 1000 to 10000 nM.

As for `Cc1cc2c(cc(NC(N)=O)c3nnc(C)n32)n1Cc1ccc(F)cc1` [Example 239, 1-(6-(4-Fluorobenzyl)-1,7-dimethyl-6H-pyrrolo[2,3-e][1,2,4]triazolo[4,3-a]pyridin-4-yl)urea], the IC50 is at most 1000 nM.

On to `Cc1cc2c(cc(Nc3ccccn3)c3nnc(C)n32)n1Cc1ccccc1` [Example 240, 6-benzyl-1,7-Dimethyl-N-(pyridin-2-yl)-6H-pyrrolo[2,3-e][1,2,4]triazolo[4,3-a]pyridin-4-amine], for which the IC50 lay in the range of 1000 to 10000 nM.

For `Cc1cc2c(cc(NCC3CCC3)c3nnc(C)n32)n1Cc1ccccc1` [Example 241, 6-Benzyl-N-(cyclobutylmethyl)-1,7-dimethyl-6H-pyrrolo[2,3-e][1,2,4]triazolo[4,3-a]pyridin-4-amine], the concentration for half-maximal inhibition (IC50) is 1000 to 10000 nM.

`Cc1cc2c(cc(NCC3CN(C(=O)OC(C)(C)C)C3)c3nnc(C)n32)n1Cc1ccccc1` [Example 243, tert-Butyl 3-((6-benzyl-1,7-dimethyl-6H-pyrrolo[2,3-e][1,2,4]triazolo[4,3-a]pyridin-4-ylamino)methyl)azetidine-1-carboxylate]: the IC50 is 1000 to 10000 nM.

As for `Cc1cc2c(cc(NC3CN(C(=O)OC(C)(C)C)C3)c3nnc(C)n32)n1Cc1ccccc1` [Example 244, tert-Butyl 3-(6-benzyl-1,7-dimethyl-6H-pyrrolo[2,3-e][1,2,4]triazolo[4,3-a]pyridin-4-ylamino)azetidine-1-carboxylate], the IC50 was at most 1000 nM.

For the molecule `Cc1cc2c(cc(NCCCN(C)C)c3nnc(C)n32)n1Cc1ccccc1` [Example 245, N1-(6-Benzyl-1,7-dimethyl-6H-pyrrolo[2,3-e][1,2,4]triazolo[4,3-a]pyridin-4-yl)-N3,N3-dimethylpropane-1,3-diamine], the concentration for half-maximal inhibition (IC50) is at most 1000 nM.

Consider `Cc1cc2c(cc(NCCN(C)C)c3nnc(C)n32)n1Cc1ccccc1` [Example 246, N1-(6-Benzyl-1,7-dimethyl-6H-pyrrolo[2,3-e][1,2,4]triazolo[4,3-a]pyridin-4-yl)-N2,N2-dimethylethane-1,2-diamine], for which the half-maximal inhibitory concentration (IC50) is at most 1000 nM.

In the case of `Cc1cc2c(cc(N[C@H]3C[C@H](O)C3)c3nnc(C)n32)n1Cc1ccccc1` [Example 247, trans-3-(6-Benzyl-1,7-dimethyl-6H-pyrrolo[2,3-e][1,2,4]triazolo[4,3-a]pyridin-4-ylamino)cyclobutanol], the half-maximal inhibitory concentration (IC50) was at most 1000 nM.

With `Cc1cc2c(cc(NC(=O)OC(C)(C)C)c3nnc(C)n32)n1Cc1ccccc1` [Example 248, tert-Butyl 6-benzyl-1,7-dimethyl-6H-pyrrolo[2,3-e][1,2,4]triazolo[4,3-a]pyridin-4-ylcarbamate], the IC50 is at most 1000 nM.

Turning to `CCNC(=O)Nc1cc2c(cc(C)n2Cc2ccccc2)n2c(C)nnc12` [Example 249, 1-(6-Benzyl-1,7-dimethyl-6H-pyrrolo[2,3-e][1,2,4]triazolo[4,3-a]pyridin-4-yl)-3-ethylurea], the IC50 was at most 1000 nM.

Take `Cc1cc2c(cc(NC(=O)NC(C)C)c3nnc(C)n32)n1Cc1ccccc1` [Example 250, 1-(6-Benzyl-1,7-dimethyl-6H-pyrrolo[2,3-e][1,2,4]triazolo[4,3-a]pyridin-4-yl)-3-isopropylurea]: the 50% inhibitory concentration (IC50) is at most 1000 nM.

Consider `Cc1cc2c(cc(NC(=O)N(C)C)c3nnc(C)n32)n1Cc1ccccc1` [Example 251, 3-(6-Benzyl-1,7-dimethyl-6H-pyrrolo[2,3-e][1,2,4]triazolo[4,3-a]pyridin-4-yl)-1,1-dimethylurea], for which the IC50 was at most 1000 nM.

Regarding `Cc1cc2c(cc(NC(N)=O)c3nnc(C)n32)n1Cc1ccccc1` [Example 252, 1-(6-Benzyl-1,7-dimethyl-6H-pyrrolo[2,3-e][1,2,4]triazolo[4,3-a]pyridin-4-yl)urea], the IC50 is at most 1000 nM.

As to `Cc1cc2c(cc(Nc3ncc[nH]3)c3nnc(C)n32)n1Cc1ccccc1` [Example 253, 6-Benzyl-N-(1H-imidazol-2-yl)-1,7-dimethyl-6H-pyrrolo[2,3-e][1,2,4]triazolo[4,3-a]pyridin-4-amine], the IC50 is at most 1000 nM.

In the case of `Cc1cc2c(cc(NC(N)=O)c3nnc(C)n32)n1Cc1c(F)cccc1F` [Example 254, 1-(6-(2,6-Difluorobenzyl)-1,7-dimethyl-6H-pyrrolo[2,3-e][1,2,4]triazolo[4,3-a]pyridin-4-yl)urea], the IC50 was at most 1000 nM.

As to `Cc1cc2c(cc(Nc3ccncc3)c3nnc(C)n32)n1Cc1ccccc1` [Example 255, 6-Benzyl-1,7-dimethyl-N-(pyridin-4-yl)-6H-pyrrolo[2,3-e][1,2,4]triazolo[4,3-a]pyridin-4-amine], the concentration for half-maximal inhibition (IC50) was at most 1000 nM.

As to `Cc1cc2c(cc(Nc3cccnc3)c3nnc(C)n32)n1Cc1ccccc1` [Example 256, 6-Benzyl-1,7-dimethyl-N-(pyridin-3-yl)-6H-pyrrolo[2,3-e][1,2,4]triazolo[4,3-a]pyridin-4-amine], the IC50 was at most 1000 nM.
